# Laboratory results from patent US7090991B2 (priority 1999, dated 2006).
# Non-standard residues stand in square brackets, D forms with d. Residues, ends and D or L forms follow the SMILES beside them. No end group written: not given here.
# What was measured:
# R-VIP-1 = test: Test cell + FUS1p-lacZ plasmid, R-VIP-1; type: cell-based, Rat; conditions: CY18636, CP4110, saturating or near saturating ligand
# Method: (§1) Detection of LacZ activity in the detector cells (data shown in Table 6) was performed essentially as described in the experimental protocol of Example 1, with the exception that 20 microliters of a solution containing 0.5 mM fluorescein di-β-D-galactopyranoside (FDG), 125 mM PIPES pH 7.2, 1.25% Triton X-100 was added instead of the 20 microliters of CPRG solution utilized in Example 1. Following addition of the FDG solution, the reaction was incubated for 30 minutes at 37° C. After stopping the reaction with 20 microliters of 1 M Na2CO3, the fluorescence was determined utilizing a 96-well plate reader with an excitation wavelength of 485 nm and an emission wavelength of 535 nm.
# R-VIP-1 Rat = test: Test cell + detector cell (FDG), R-VIP-1; type: cell-based; conditions: CY18636, CP4110, saturating or near saturating ligand
# Method: (§2) A strain of test cells was established by transforming (transfecting) a culture of S. cerevisiae yeast cells with the human1a (ML1a) receptor gene. Cultures of MATα test cells containing a heterologous ML1a receptor (CY1 3858) and MATa detector cells (a CY19 related strain containing the CP1212 FUS1p-LacZ plasmid) were grown overnight to stationary phase in media selective for the maintenance of the plasmids (SCD-leu media for the MATα cells and SCD-ura for the MATα cells). The cells were diluted with additional medium and permitted to recover from stationary phase for several hours. After determination of the optical density of the cultures, the cells were harvested by centrifugation, were washed once in non-selective synthetic medium, and were resuspended in non-selective medium at an approximate optical density (measured at 600 nm) of 0.4. […] The final volume of cells, culture medium and ligand was about 100 microliters. The cells were mixed using a plate-mixer and incubated at 30° C. […] The reaction was then stopped by the addition of 60 microliters 1 M sodium carbonate, and the absorbance at a wavelength of 575 nm was determined using a plate reader. […]
# [1] = system: Growth Hormone Secretagoge Receptor; test: Test cell + FUS1p-lacZ plasmid, GHSR; type: cell-based, sheep; conditions: CY18879, CP6416, saturating or near saturating ligand
# Method: as §1
# [2] = system: Growth Hormone Secretagoge Receptor; test: Test cell + detector cell (FDG), GHSR; type: cell-based, sheep; conditions: CY18879, CP6416, saturating or near saturating ligand
# Method: as §2
# Bradykinin 2 Receptor [3] = target: T1, Bradykinin 2 Receptor (Homo sapiens, UniProt P30411); test: Test cell + detector cell (FDG), BK2; type: cell-based; conditions: CY18778, CP1930, saturating or near saturating ligand
# T1 construct: expressed in transfected cells; host or cells: S. cerevisiae MATα test cells, plasmid CP1930
# T1 sequence (P30411 1-391): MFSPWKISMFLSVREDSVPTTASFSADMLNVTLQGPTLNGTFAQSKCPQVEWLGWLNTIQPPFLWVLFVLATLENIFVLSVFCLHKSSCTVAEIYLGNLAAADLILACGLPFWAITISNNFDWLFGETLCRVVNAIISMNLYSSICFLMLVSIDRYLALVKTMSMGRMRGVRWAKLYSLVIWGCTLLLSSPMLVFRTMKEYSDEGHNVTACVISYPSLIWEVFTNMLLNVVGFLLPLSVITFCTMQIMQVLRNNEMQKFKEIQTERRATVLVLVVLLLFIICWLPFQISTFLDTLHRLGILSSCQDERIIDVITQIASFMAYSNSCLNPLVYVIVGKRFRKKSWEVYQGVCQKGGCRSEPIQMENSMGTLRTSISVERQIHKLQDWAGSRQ
# Method: as §2
# Bradykinin 2 Receptor [4] = target: T1, Bradykinin 2 Receptor; test: Test cell + FUS1p-lacZ plasmid, BK2; type: cell-based; conditions: CY18778, CP1930, saturating or near saturating ligand
# Method: as §1
# [5] = system: MATα test cells lacking the ML1a receptor; test: Two cell assay: MFα1-deleted MATα test cells with mock plasmid (CY18594) + MATa detector cells, β-galactosidase (CPRG); type: cell-based, S. cerevisiae; conditions: in the presence of melatonin
# Method: (§3) Cultures of MATα test cells containing a heterologous ML1a receptor (CY1 3858) and MATa detector cells (a CY19 related strain containing the CP1212 FUS1p-LacZ plasmid) were grown overnight to stationary phase in media selective for the maintenance of the plasmids (SCD-leu media for the MATα cells and SCD-ura for the MATα cells). The cells were diluted with additional medium and permitted to recover from stationary phase for several hours. After determination of the optical density of the cultures, the cells were harvested by centrifugation, were washed once in non-selective synthetic medium, and were resuspended in non-selective medium at an approximate optical density (measured at 600 nm) of 0.4. […] The final volume of cells, culture medium and ligand was about 100 microliters. The cells were mixed using a plate-mixer and incubated at 30° C. […] The reaction was then stopped by the addition of 60 microliters 1 M sodium carbonate, and the absorbance at a wavelength of 575 nm was determined using a plate reader.
# ML1a melatonin receptor = target: T2, ML1a melatonin receptor (Homo sapiens, UniProt P48039); test: Two cell assay: MFα1-deleted MATα test cells with ML1a receptor (CY18596) + MATa detector cells, β-galactosidase (CPRG); type: cell-based; conditions: MFα1-deleted test cells expressing ML1a receptor
# T2 construct: expressed in transfected cells; host or cells: S. cerevisiae MATα test cells (CY13858; CY18596, MFα1-deleted), plasmid CP2695
# T2 sequence (P48039 whole entry): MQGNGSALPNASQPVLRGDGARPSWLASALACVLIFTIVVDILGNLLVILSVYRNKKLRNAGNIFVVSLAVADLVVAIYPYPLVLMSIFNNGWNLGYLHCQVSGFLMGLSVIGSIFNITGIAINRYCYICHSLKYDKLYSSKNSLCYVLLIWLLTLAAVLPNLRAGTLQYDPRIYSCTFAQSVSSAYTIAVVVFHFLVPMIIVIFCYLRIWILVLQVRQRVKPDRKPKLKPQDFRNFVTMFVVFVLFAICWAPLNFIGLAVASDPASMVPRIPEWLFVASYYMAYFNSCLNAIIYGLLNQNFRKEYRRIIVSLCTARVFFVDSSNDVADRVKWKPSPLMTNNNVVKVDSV
# Method: as §3
# Using the experimental protocol described in Example 1, MATα test cells lacking the MFα1 gene and containing a plasmid encoding the ML1a receptor (CY18596) or a mock control plasmid (CY18594) were mixed with an equal number of MATa detector cells having a FUS1-LacZ plasmid. […]
# melatonin ML1a receptor = target: T3, melatonin ML1a receptor (Homo sapiens, UniProt P48039); test: Two cell assay: MATα test cells with ML1a receptor (CY13858) + MATa FUS1p-LacZ detector cells, β-galactosidase (CPRG); type: cell-based
# T3 construct: expressed in transfected cells; host or cells: S. cerevisiae MATα test cells (CY13858; CY18596, MFα1-deleted), plasmid CP2695
# T3 sequence (P48039 whole entry): as above
# From the text: Binding of cognate ligand to the heterologous receptor in the test cell activates the receptor, causing a signal to be transduced through the pheromone response pathway, ultimately resulting in the secretion of α-factor from the cell. Specific receptors at the surface of the detector cells bind to the secreted α-factor and are activated by it, resulting in the transduction of a signal through the pheromone response pathway in these cells, and activating the transcription of the lacZ gene. The activity of the β-galactosidase expressed from this lacZ gene may be determined and thereby enables a determination of the activity of the pheromone response pathway in the first, test cells.
# A strain of test cells was established by transforming (transfecting) a culture of S. cerevisiae yeast cells with the human1a (ML1a) receptor gene. […] After determination of the optical density of the cultures, the cells were harvested by centrifugation, were washed once in non-selective synthetic medium, and were resuspended in non-selective medium at an approximate optical density (measured at 600 nm) of 0.4. […] The reaction was then stopped by the addition of 60 microliters 1 M sodium carbonate, and the absorbance at a wavelength of 575 nm was determined using a plate reader.
molecule,measurement,setting,value
NC(=O)CC[C@@H]1NC(=O)[C@H](Cc2ccccc2)NC(=O)[C@H](Cc2ccc(O)cc2)NC(=O)[C@@H](N)CSSC[C@@H](C(=O)N2CCC[C@H]2C(=O)N[C@@H](CCCN=C(N)N)C(=O)NCC(N)=O)NC(=O)[C@H](CC(N)=O)NC1=O [Vasopressin],"Fold induction, Test Cell + FUS1p-lacZ plasmid",R-VIP-1,20 fold
same,"Fold induction, Test cell + Detector Cell",R-VIP-1 Rat,8 fold
C[C@H](NC(=O)[C@@H](Cc1c[nH]c2ccccc12)NC(=O)[C@@H](N)Cc1c[nH]cn1)C(=O)N[C@@H](Cc1c[nH]c2ccccc12)C(=O)N[C@H](Cc1ccccc1)C(=O)N[C@@H](CCCCN)C(N)=O [GHRP-6] (H-H[dW]AW[dF]K-NH2),"Fold induction, Test Cell + FUS1p-lacZ plasmid",[1],9 fold
same,"Fold induction, Test cell + Detector Cell",[2],4 fold
RPPGFSPFR [Bradykinin],"Fold induction, Test cell + Detector Cell",Bradykinin 2 Receptor [3],84 fold
same,"Fold induction, Test Cell + FUS1p-lacZ plasmid",Bradykinin 2 Receptor [4],101 fold
COc1ccc2[nH]cc(CCNC(C)=O)c2c1 [melatonin],α-factor secretion by test cells as detected by detector cells,[5],did not secrete any additional α-factor
same,β-galactosidase activity,ML1a melatonin receptor; in the presence of melatonin,approximately 2.1 units
same,increase in β-galactosidase activity,ML1a melatonin receptor; melatonin versus no ligand,~5.2 fold
same,β-galactosidase activity in the detector cells,"melatonin ML1a receptor; in the presence of melatonin, no ligand approximately 1.1 units",approximately 1.8 units
same,induction in β-galactosidase activity,melatonin ML1a receptor; melatonin versus no ligand,approximately 1.6 fold
